# “And” between values parts separate entries of the source, which are not always exact repeats. Equal entries are not always repeated. Where two headings read alike, the source gives them in different places.
# Assays:
# [1] = system: mice with nerve disorder induced by mercury poisoning; test: T-shaped maze learning and memory of mice with mercury poisoning; type: in vivo, Male BalbC strain mice; conditions: 102 69.5, 116 76.9 mg/kg.ip/day; for running time: mean ± SE, after MMC; for Number of mice which ran to the safety area within 5 seconds: numerator: at least 8 of ten runs within 5 seconds, denominator: mice tested, after MMC 6 mg/kg/day
# Procedure: Male BalbC strain mice, 7 weeks old, were first caused to learn a T-shaped maze three times in a week so that they run straight from a starting point to a safety area. Then, methylmercury chloride (MMC for short) was administered orally in a dose of 6 mg/kg/day for 6 days. A group of mice to which saline was administered in a dose of 0.1 ml/10 g/day was used as a control group. Beginning with the day next to the day of administering MMC, compounds Nos. 102 and 116 were intraperitoneally administered over 10 days in a dose of 69.5 mg/kg/day and 76.9 mg/kg/day, respectively, so as to make the mole numbers of the compounds equal. On the sixth day after administration of the drug (namely, on the 12th day after start of the experiment), learning of the T-shaped maze was resumed, and the running behaviors of the mice were observed. The number of mice which could be experimented in the T-shaped maze on the 10th and 11th days after the resumption (21st and 22nd days after the start of the experiment) was counted and expressed as a denominator. The number of mice which ran to the safety area within 5 seconds at least 8 times out of ten trial runnings was counted and expressed as a numerator. The decrease in the number of the test animals was due to death by MMC poisoning. The time (seconds) required for the animals to run to the safety area was measured, and the mean ± standard error (SE) was calculated.
# [2] = system: mouse; test: Acute toxicity; type: in vivo; conditions: p.o., 24 hours after administration
# Procedure: (§1) The acute toxicity of the compounds of the invention was examined by the following method.
# (§2) Male ddy-strain 5-week old mice and male Wistar-strain 8 week old rats, five per group, were used as experimental animals. Each of the compounds was dissolved in saline and administered perorally (p.o.) or intraperitoneally (i.p.), and the toxicity of the compound was assessed 24 hours after the administration.
# [3] = Acute toxicity; type: in vivo; conditions: in vivo, mouse, 24 hours after administration
# Procedure: as §1, §2
# [4] = system: rats having the lesioned nigral dopaminergic nerve cells; test: Methamphetamine-induced rotational movement after 6-hydroxydopamine lesion and fetal dopamine cell transplantation; type: in vivo, female Wistar rats
# Procedure: Nigral dopaminergic nerve cells at the left side of the brain of 4-week old female Wistar rats (body weight 100 g) were lesioned by injecting a very small quantity of 6-hydroxydopamine. […] Upon administration of methamphethamine (5 mg/kg, i.p.) to the rats having the lesioned nigral dopaminergic nerve cells, they began rotational movement toward the lesioned side.
# After two weeks from the destruction by the administration of the drug, portions of the truncus corporis callosi containing dopamine cells (i. e., substantia nigra and the tagmentum at the abdomen side) were cut from the brain of a fetal rat of 14 to 17 days of age, cut finely, and treated with trypsin. Then, the extracted tissues were incubated at 37°C for 30 minutes, and the tissues were subjected to pipetting to form a suspension. Five microliters of the suspension was transplanted each into two sites of the caudate nucleus of the lesioned side (10 microliters in total, about 10⁵ cells).
# Each of the compounds (I) in a dose of 100 mg/kg (i.p.) was administered every day over two weeks from the day of transplantation. The rotational movements induced by administration of methamphetamine were examined 2 weeks and 1 week before, and 2 weeks and 4 weeks after, the transplantation and the administration of the drug. The number of rotational movements within one minute was counted at intervals of 10 minutes after the administration of methamphetamine, and the total number of rotational movements counted six times was averaged to find a mean number of the rotational movements.
# [5] = system: rats with crushed sciatic nerves; test: Curative effect on rats with crushed sciatic nerves; type: in vivo, male Wistar rats; conditions: i.p. once a day, Compound 118 30 mg/kg, Mecobalamin 0.5 mg/kg, mean ± S.E.; for Rate of recovery in muscle weight (%): soleus muscle, crushed side/normal side
# Procedure: The curing effect of the compound (I) of the invention was tested on rats having crushed sciatic nerves as a model of peripheral nervous disorder using (1) a change in the action of the hind paw with the crushed sciatic nerves and (2) a change in the weight of the muscle as an index of the course of degeneration and regeneration of peripheral nerves.
# In the experiment, male Wistar rats (6 weeks old), seven per group, were used. The sciatic nerves were crushed by a method similar to the method of Yamatsu et al. (see Kiyomi Yamatsu, Takenori Kaneko, Akifumi Kitahara and Isao Ohkawa, Journal of Japanese Pharmacological Society, 72, 259-268 (1976) and the method of Hasegawa et al. (see Kazuo Hasegawa, Naoji Mikuni and Yutaka Sakai, Journal of Japanese Pharmacological Society, 74 721-734 (1978). Specifically, under anesthesia with pentobarbital (40 mg/kg, i.p.), the left side sciatic nerve was exposed at the femur and that site of the exposed sciatic nerve which was 5 mm to the center from the branched part between the N. tibialis and the N. suralis was crushed using a modified artery, klomme, having a width of 2 mm and a gap of 0.1 mm. After the operation, the rats were assigned to the test groups at random.
# Compound No. 118 was selected as the compound (I) of the invention and intraperitoneally administered to the rats once a day from the day of operation to the 22nd day. A group to which mecobalamin (made by Gedeon Richter Ltd.) was administered and a group to which 0.9 % saline was administered were used as controls. The following items were measured with the lapse of time (on the lst, 4th, 7th, 10th, 14th, 17th, 21st, and 23rd days after the crushing of the sciatic nerves).
# By a method similar to the method of Hasegawa [Hasegawa, K., Experientia, 34, 750-751 (1978)], the distance between the first and fifth digits of the hind paw was measured.
# The ratio of the measured distance to the normal distance was calculated and expressed in percentage (%).
# It is known that the removal of a nerve or its disorder causes atrophy of the muscle which is under its control, and the atrophy is gradually cured by re-control by the nerve. For this reason, a change in the weight of the muscle, which is quantitative, was selected as an index. Twenty-three days after the operation, the soleus muscles of both sides of paws were extracted under anesthesia with pentobarbital, and their weights were measured. The ratio of the weight of the soleus muscle on the crushed side to that of normal side was calculated and expressed in percentage (%).
# [6] = po, p.o., read-out: Estimated LD₅₀ (mg/kg, p.o.)
# [7] = ip, i.p., read-out: Estimated LD₅₀ (mg/kg, i.p.)
smiles,measurement,setting,value
"CC(C)Nc1ncc2c(n1)N(C)C(=O)C2.Cl [Compound 102, 2-iso-Propylamino-5,6-dihydro-7-methyl-6-oxo(7H)pyrrolo[2,3-d]pyrimidine hydrochloride]",running time,[1]; 10th day after resumption,2.1 ± 0.2 s
same,Number of mice which ran to the safety area within 5 seconds,[1]; 10th day after resumption,6/6
same,running time,[1]; 11th day after resumption,3.0 ± 0.6 s
same,Number of mice which ran to the safety area within 5 seconds,[1]; 11th day after resumption,6/6
same,Number of dead animals/number of animals tested,[2]; Dose 1000 mg/kg,0/5
same,LD50 at 24 h,[3]; [6],> 1000 mg/kg
"CC(C)Nc1ncc2c(n1)N(C)C(=O)C2.O=C(O)/C=C\C(=O)O [Compound 104, 2-iso-Propylamino-5,6-dihydro-7-methyl-6-oxo(7H)pyrrolo[2,3-d]pyrimidine maleate]",Number of rotational movements of rats and average values thereof (mean ±S.D.),"[4]; 2W after transplantation, 100 mg/kg (i.p.) every day over two weeks, maleate, 100 mg/kg",2.0±3.2 and 3.1±3.8
same,Number of rotational movements of rats and average values thereof (mean ±S.D.),"[4]; -1W (before transplantation and drug administration, baseline), maleate",10.8±3.8 and 10.4±5.2
same,Number of rotational movements of rats and average values thereof (mean ±S.D.),"[4]; -2W (before transplantation and drug administration, baseline), maleate",12.3±3.7 and 10.1±6.1
CN(C)c1ncc2c(n1)N(C)C(=O)C2 [Compound 108],Number of dead animals/number of animals tested,[2]; Dose 1000 mg/kg,2/5
same,LD50 at 24 h,[3]; [6],> 1000 mg/kg
CN1C(=O)Cc2cnc(N3CCCC3)nc21 [Compound 112],Number of dead animals/number of animals tested,[2]; Dose 1000 mg/kg,0/5
same,LD50 at 24 h,[3]; [6],> 1000 mg/kg
CN1C(=O)Cc2cnc(N3CCCCC3)nc21 [Compound 118],Rate of recovery of the interdigit distance (%),[5]; 21st day,79.8±2.5 %
same,Rate of recovery of the interdigit distance (%),[5]; 23rd day,87.9±3.3 %
same,Rate of recovery in muscle weight (%),[5]; 23rd day,59.6±2.8 %
same,Number of rotational movements of rats and average values thereof (mean ±S.D.),"[4]; 2W after transplantation, 100 mg/kg (i.p.) every day over two weeks",1.9±3.2
same,Number of rotational movements of rats and average values thereof (mean ±S.D.),"[4]; -1W (before transplantation and drug administration, baseline)",13.9±7.4 and 10.8±4.9
same,Number of rotational movements of rats and average values thereof (mean ±S.D.),"[4]; -2W (before transplantation and drug administration, baseline)",9.1±5.6
same,Number of rotational movements of rats and average values thereof (mean ±S.D.),"[4]; column headed 3W, footnote: * Data at 2 W, 100 mg/kg (i.p.) every day over two weeks",*5.5±7.2
same,Number of dead animals/number of animals tested,[2]; Dose 1000 mg/kg,0/5
same,LD50 at 24 h,[3]; [7],500 to 1000 mg/kg
same,LD50 at 24 h,[3]; [6],> 1000 mg/kg
CN1C(=O)Cc2cnc(N3CCOCC3)nc21 [Compound 122],Number of dead animals/number of animals tested,[2]; Dose 1000 mg/kg,1/5
same,LD50 at 24 h,[3]; [6],> 1000 mg/kg
CN1C(=O)Cc2cnc(N3CCSCC3)nc21 [Compound 126],Number of dead animals/number of animals tested,[2]; Dose 1000 mg/kg,0/5
same,LD50 at 24 h,[3]; [6],> 1000 mg/kg
"CCN(CC)C(=O)N1CCN(c2ncc3c(n2)N(C)C(=O)C3)CC1 [Compound 132, 2-Diethylaminocarbonylpiperazino-5,6-dihydro-7-methyl-oxo(7H)pyrrolo[2,3-d]pyrimidine]",Number of dead animals/number of animals tested,[2]; Dose 1000 mg/kg,1/5
same,LD50 at 24 h,[3]; [6],> 1000 mg/kg
CN1CCN(c2ncc3c(n2)N(C)C(=O)C3)CC1 [Compound 138],Number of dead animals/number of animals tested,[2]; Dose 1000 mg/kg,0/5
same,LD50 at 24 h,[3]; [7],250 to 500 mg/kg
same,LD50 at 24 h,[3]; [6],> 1000 mg/kg
CC1CCN(c2ncc3c(n2)N(C)C(=O)C3)CC1 [Compound 175],LD50 at 24 h,[3]; [7],500 to 1000 mg/kg
CN1Cc2nc(N3CCCC3)ncc2C1=O [Compound 216],Number of dead animals/number of animals tested,[2]; Dose 550 mg/kg,0/5
same,LD50 at 24 h,[3]; [6],> 550 mg/kg
CN1Cc2nc(N3CCCCC3)ncc2C1=O [Compound 218],Number of dead animals/number of animals tested,[2]; Dose 550 mg/kg,0/5
same,LD50 at 24 h,[3]; [6],> 550 mg/kg
"C/C1=C2/[N-][C@H]([C@H](CC(N)=O)[C@@]2(C)CCC(=O)NC[C@@H](C)OP(=O)([O-])O[C@H]2[C@@H](O)[C@@H](n3cnc4cc(C)c(C)cc43)O[C@@H]2CO)[C@]2(C)N=C(/C(C)=C3N=C(/C=C4N=C1[C@@H](CCC(N)=O)C\4(C)C)[C@@H](CCC(N)=O)[C@]\3(C)CC(N)=O)[C@@H](CCC(N)=O)[C@]2(C)CC(N)=O.[CH3-].[Co+3] [Mecobalamin, reference compound]",Rate of recovery of the interdigit distance (%),[5]; 21st day,79.1±2.6 %
same,Rate of recovery of the interdigit distance (%),[5]; 23rd day,88.3±4.0 %
same,Rate of recovery in muscle weight (%),[5]; 23rd day,55.0±3.5%

# — patent publication EP0305184A1, “Pyrimidines or their pharmaceutically acceptable salts thereof” (MITSUI PHARMACEUTICALS, INC., priority 1987, dated 1989)
